Measurements taken from ChEMBL document CHEMBL4507275, “Data for DCP probe BI-2545” (2021).

How the values were obtained:
[1] = target: Bone morphogenetic protein receptor type-1B (Homo sapiens) (UniProt O00238); details: Compound concentration 1000.0 nM
[2] = test system: Serine/threonine-protein kinase B-raf (Homo sapiens), P15056 [V600E]; details: Compound concentration 1000.0 nM
[3] = target: Serine/threonine-protein kinase BRSK1 (Homo sapiens) (UniProt Q8TDC3); details: Compound concentration 1000.0 nM
[4] = target: Mitotic checkpoint serine/threonine-protein kinase BUB1 (Homo sapiens) (UniProt O43683); details: Compound concentration 1000.0 nM
[5] = target: Cyclin-dependent kinase 19 (Homo sapiens) (UniProt Q9BWU1); details: Compound concentration 1000.0 nM
[6] = target: Casein kinase I isoform alpha-like (Homo sapiens) (UniProt Q8N752); details: Compound concentration 1000.0 nM
[7] = target: Casein kinase I isoform delta (Homo sapiens) (UniProt P48730); details: Compound concentration 1000.0 nM
[8] = test system: Epidermal growth factor receptor (Homo sapiens), P00533 [L858R,T790M]; details: Compound concentration 1000.0 nM
[9] = target: Ephrin type-A receptor 3 (Homo sapiens) (UniProt P29320); details: Compound concentration 1000.0 nM
[10] = target: Ephrin type-A receptor 5 (Homo sapiens) (UniProt P54756); details: Compound concentration 1000.0 nM
[11] = target: Ephrin type-B receptor 1 (Homo sapiens) (UniProt P54762); details: Compound concentration 1000.0 nM
[12] = target: Fibroblast growth factor receptor 1 (Homo sapiens) (UniProt P11362); details: Compound concentration 1000.0 nM
[13] = test system: Fibroblast growth factor receptor 3 (Homo sapiens), P22607 [G697C]; details: Compound concentration 1000.0 nM
[14] = test system: Receptor-type tyrosine-protein kinase FLT3 (Homo sapiens), P36888 [D835Y]; details: Compound concentration 1000.0 nM
[15] = target: Glycogen synthase kinase-3 beta (Homo sapiens) (UniProt P49841); details: Compound concentration 1000.0 nM
[16] = target: Hormonally up-regulated neu tumor-associated kinase (Homo sapiens) (UniProt P57058); details: Compound concentration 1000.0 nM
[17] = target: Serine/threonine-protein kinase LATS2 (Homo sapiens) (UniProt Q9NRM7); details: Compound concentration 1000.0 nM
[18] = target: Mitogen-activated protein kinase kinase kinase kinase 2 (Homo sapiens) (UniProt Q12851); details: Compound concentration 1000.0 nM
[19] = target: MAP/microtubule affinity-regulating kinase 4 (Homo sapiens) (UniProt Q96L34); details: Compound concentration 1000.0 nM
[20] = target: Dual specificity mitogen-activated protein kinase kinase 3 (Homo sapiens) (UniProt P46734); details: Compound concentration 1000.0 nM
[21] = target: Serine/threonine-protein kinase MRCK alpha (Homo sapiens) (UniProt Q5VT25); details: Compound concentration 1000.0 nM
[22] = target: Serine/threonine-protein kinase 4 (Homo sapiens) (UniProt Q13043); details: Compound concentration 1000.0 nM
[23] = target: Myosin light chain kinase 2, skeletal/cardiac muscle (Homo sapiens) (UniProt Q9H1R3); details: Compound concentration 1000.0 nM
[24] = target: Serine/threonine-protein kinase Nek2 (Homo sapiens) (UniProt P51955); details: Compound concentration 1000.0 nM
[25] = target: Serine/threonine-protein kinase Nek7 (Homo sapiens) (UniProt Q8TDX7); details: Compound concentration 1000.0 nM
[26] = target: Cyclin-dependent kinase 18 (Homo sapiens) (UniProt Q07002); details: Compound concentration 1000.0 nM
[27] = test system: Phosphatidylinositol 4,5-bisphosphate 3-kinase catalytic subunit alpha isoform (Homo sapiens), P42336 [C420R]; details: Compound concentration 1000.0 nM
[28] = test system: Phosphatidylinositol 4,5-bisphosphate 3-kinase catalytic subunit alpha isoform (Homo sapiens), P42336 [E545K]; details: Compound concentration 1000.0 nM
[29] = test system: Phosphatidylinositol 4,5-bisphosphate 3-kinase catalytic subunit alpha isoform (Homo sapiens), P42336 [Q546K]; details: Compound concentration 1000.0 nM
[30] = target: Phosphatidylinositol 4,5-bisphosphate 3-kinase catalytic subunit delta isoform (Homo sapiens) (UniProt O00329); details: Compound concentration 1000.0 nM
[31] = target: Protein kinase C theta type (Homo sapiens) (UniProt Q04759); details: Compound concentration 1000.0 nM
[32] = target: Rho-associated protein kinase 2 (Homo sapiens) (UniProt O75116); details: Compound concentration 1000.0 nM
[33] = target: Tyrosine-protein kinase SYK (Homo sapiens) (UniProt P43405); details: Compound concentration 1000.0 nM
[34] = target: Mitogen-activated protein kinase kinase kinase 7 (Homo sapiens) (UniProt O43318); details: Compound concentration 1000.0 nM
[35] = target: Serine/threonine-protein kinase TNNI3K (Homo sapiens) (UniProt Q59H18); details: Compound concentration 1000.0 nM
[36] = target: Non-receptor tyrosine-protein kinase TYK2 (Homo sapiens) (UniProt P29597); details: Compound concentration 1000.0 nM
[37] = target: Non-receptor tyrosine-protein kinase TYK2 (Homo sapiens) (UniProt P29597); details: Compound concentration 1000.0 nM; remark: listed apart in the source
[38] = target: Serine/threonine-protein kinase ULK2 (Homo sapiens) (UniProt Q8IYT8); details: Compound concentration 1000.0 nM
[39] = target: Phosphatidylinositol 3-kinase catalytic subunit type 3 (Homo sapiens) (UniProt Q8NEB9); details: Compound concentration 1000.0 nM
[40] = target: Serine/threonine-protein kinase 32A (Homo sapiens) (UniProt Q8WU08); details: Compound concentration 1000.0 nM
[41] = target: Serine/threonine-protein kinase 25 (Homo sapiens) (UniProt O00506); details: Compound concentration 1000.0 nM
[42] = target: 5-hydroxytryptamine receptor 2C (Homo sapiens) (UniProt P28335); details: Compound concentration 10.0 uM
[43] = target: D(1A) dopamine receptor (Homo sapiens) (UniProt P21728); details: Compound concentration 10.0 uM
[44] = target: Kappa-type opioid receptor (Homo sapiens) (UniProt P41145); details: Compound concentration 10.0 uM
[45] = target: Histamine H4 receptor (Homo sapiens) (UniProt Q9H3N8); details: Compound concentration 10.0 uM
Histamine H4 receptor (Homo sapiens), sequence (Q9H3N8 whole entry): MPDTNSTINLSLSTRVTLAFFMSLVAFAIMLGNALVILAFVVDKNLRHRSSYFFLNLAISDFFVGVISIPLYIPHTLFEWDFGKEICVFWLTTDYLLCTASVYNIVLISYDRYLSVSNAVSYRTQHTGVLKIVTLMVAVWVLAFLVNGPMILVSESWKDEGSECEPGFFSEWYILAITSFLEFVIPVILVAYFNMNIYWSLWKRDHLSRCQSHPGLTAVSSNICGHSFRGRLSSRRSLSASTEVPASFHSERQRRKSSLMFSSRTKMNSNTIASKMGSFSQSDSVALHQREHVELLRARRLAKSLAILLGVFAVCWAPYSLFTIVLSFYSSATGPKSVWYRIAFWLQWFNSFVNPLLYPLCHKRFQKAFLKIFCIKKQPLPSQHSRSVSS

Non-receptor tyrosine-protein kinase TYK2 (Homo sapiens), sequence (P29597 whole entry): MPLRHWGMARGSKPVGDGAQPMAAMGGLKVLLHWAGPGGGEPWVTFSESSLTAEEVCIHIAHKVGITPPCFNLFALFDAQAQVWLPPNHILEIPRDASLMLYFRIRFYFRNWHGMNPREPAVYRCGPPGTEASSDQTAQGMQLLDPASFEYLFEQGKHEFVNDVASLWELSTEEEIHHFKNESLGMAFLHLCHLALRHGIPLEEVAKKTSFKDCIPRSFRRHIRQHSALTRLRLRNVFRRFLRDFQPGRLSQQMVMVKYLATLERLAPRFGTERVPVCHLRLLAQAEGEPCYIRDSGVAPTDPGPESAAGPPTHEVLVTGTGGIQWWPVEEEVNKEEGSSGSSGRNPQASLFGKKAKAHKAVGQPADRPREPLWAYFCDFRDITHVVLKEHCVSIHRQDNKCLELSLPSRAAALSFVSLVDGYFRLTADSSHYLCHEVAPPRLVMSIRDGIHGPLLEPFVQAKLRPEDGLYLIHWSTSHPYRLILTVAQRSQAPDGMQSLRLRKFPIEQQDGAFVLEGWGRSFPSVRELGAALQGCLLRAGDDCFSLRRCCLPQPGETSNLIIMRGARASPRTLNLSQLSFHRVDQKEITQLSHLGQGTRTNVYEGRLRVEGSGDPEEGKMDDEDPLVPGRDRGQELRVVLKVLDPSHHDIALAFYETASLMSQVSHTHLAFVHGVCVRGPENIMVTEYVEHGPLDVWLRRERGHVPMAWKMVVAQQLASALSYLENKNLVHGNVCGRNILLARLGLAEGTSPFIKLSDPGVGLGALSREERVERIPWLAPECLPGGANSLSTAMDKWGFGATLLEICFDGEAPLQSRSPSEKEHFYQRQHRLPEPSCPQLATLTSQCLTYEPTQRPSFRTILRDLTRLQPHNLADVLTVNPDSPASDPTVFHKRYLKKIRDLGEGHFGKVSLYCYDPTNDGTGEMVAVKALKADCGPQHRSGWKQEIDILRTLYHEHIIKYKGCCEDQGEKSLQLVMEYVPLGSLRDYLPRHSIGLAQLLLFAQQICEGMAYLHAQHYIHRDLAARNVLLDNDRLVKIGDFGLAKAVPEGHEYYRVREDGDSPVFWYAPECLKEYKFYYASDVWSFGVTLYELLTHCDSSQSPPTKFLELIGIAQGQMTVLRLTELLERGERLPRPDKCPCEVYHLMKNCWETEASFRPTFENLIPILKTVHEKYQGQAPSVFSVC
Casein kinase I isoform delta (Homo sapiens), sequence (P48730 whole entry, looked up, canonical isoform): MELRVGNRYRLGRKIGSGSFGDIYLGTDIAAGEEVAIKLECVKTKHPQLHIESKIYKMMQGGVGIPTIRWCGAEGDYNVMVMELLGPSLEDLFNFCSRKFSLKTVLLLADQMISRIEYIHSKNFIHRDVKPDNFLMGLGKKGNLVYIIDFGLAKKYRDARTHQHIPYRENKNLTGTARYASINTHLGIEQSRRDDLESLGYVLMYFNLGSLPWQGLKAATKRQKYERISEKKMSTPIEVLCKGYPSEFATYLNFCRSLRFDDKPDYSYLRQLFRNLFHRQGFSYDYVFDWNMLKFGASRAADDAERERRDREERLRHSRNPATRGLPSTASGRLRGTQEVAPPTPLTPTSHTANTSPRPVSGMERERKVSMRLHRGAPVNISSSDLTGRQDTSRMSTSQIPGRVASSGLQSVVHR
Mitogen-activated protein kinase kinase kinase 7 (Homo sapiens), sequence (O43318 whole entry): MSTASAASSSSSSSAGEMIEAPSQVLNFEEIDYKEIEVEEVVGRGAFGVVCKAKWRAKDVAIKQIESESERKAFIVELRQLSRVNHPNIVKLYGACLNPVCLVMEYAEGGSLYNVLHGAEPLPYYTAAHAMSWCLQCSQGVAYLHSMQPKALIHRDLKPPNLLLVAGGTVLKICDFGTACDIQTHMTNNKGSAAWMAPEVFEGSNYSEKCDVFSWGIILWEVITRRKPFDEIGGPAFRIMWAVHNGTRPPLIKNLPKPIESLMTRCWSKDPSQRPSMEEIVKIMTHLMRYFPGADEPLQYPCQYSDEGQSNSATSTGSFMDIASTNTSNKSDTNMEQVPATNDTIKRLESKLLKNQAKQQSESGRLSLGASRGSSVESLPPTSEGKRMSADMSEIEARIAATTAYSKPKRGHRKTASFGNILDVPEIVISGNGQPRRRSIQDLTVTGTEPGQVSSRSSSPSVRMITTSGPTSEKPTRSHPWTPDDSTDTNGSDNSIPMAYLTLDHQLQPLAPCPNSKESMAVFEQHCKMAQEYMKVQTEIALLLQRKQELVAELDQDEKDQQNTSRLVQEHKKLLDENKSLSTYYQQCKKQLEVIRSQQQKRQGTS
Casein kinase I isoform alpha-like (Homo sapiens), sequence (Q8N752 whole entry, canonical isoform): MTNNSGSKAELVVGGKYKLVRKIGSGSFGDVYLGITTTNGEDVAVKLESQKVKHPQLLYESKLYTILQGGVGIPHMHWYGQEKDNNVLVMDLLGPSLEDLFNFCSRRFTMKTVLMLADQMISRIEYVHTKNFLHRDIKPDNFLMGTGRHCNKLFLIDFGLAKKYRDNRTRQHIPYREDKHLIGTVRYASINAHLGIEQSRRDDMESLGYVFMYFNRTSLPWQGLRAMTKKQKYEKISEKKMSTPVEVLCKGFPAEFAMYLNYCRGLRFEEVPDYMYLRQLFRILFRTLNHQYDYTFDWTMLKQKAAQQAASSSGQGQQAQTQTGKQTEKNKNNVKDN
Hormonally up-regulated neu tumor-associated kinase (Homo sapiens), sequence (P57058 whole entry): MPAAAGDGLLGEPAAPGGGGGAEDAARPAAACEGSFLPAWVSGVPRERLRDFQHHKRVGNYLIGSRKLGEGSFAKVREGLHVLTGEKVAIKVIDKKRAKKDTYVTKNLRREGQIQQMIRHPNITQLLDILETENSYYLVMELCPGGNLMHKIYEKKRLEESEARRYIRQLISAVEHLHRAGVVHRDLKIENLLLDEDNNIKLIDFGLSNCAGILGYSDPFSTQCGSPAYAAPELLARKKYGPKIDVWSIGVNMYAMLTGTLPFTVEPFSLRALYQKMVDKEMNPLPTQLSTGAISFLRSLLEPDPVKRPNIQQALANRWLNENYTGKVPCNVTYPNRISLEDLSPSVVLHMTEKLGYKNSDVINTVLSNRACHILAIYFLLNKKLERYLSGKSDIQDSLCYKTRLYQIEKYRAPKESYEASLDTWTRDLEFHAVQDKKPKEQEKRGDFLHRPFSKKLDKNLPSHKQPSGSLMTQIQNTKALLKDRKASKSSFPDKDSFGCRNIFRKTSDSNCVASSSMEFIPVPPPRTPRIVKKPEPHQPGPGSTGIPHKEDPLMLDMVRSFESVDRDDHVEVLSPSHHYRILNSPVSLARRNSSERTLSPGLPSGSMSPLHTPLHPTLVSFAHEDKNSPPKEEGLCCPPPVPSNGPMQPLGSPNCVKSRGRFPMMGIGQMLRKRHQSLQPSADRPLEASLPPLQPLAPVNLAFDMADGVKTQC
Kappa-type opioid receptor (Homo sapiens), sequence (P41145 whole entry): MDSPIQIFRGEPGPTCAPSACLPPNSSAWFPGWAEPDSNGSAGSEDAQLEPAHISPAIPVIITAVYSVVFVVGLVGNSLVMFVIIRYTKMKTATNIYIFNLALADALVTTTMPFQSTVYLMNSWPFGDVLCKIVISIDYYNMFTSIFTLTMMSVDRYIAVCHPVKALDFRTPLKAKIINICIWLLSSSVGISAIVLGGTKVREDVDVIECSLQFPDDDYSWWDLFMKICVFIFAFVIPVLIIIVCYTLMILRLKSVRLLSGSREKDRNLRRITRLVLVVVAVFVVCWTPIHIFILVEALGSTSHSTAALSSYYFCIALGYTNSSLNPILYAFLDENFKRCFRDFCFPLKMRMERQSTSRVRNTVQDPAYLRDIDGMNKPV
Cyclin-dependent kinase 19 (Homo sapiens), sequence (Q9BWU1 whole entry, canonical isoform): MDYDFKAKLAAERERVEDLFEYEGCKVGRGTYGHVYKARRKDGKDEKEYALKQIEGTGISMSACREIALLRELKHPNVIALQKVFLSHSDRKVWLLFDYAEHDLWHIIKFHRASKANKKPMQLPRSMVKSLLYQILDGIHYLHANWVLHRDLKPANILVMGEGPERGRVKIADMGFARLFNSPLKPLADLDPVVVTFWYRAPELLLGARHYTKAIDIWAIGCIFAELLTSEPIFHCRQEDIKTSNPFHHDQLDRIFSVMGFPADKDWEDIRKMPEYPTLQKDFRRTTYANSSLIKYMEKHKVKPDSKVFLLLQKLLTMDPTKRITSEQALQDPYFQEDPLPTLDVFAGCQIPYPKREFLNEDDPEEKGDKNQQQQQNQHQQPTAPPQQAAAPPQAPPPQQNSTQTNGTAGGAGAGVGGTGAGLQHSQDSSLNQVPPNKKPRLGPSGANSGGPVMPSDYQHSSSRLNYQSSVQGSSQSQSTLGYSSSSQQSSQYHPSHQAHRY
5-hydroxytryptamine receptor 2C (Homo sapiens), sequence (P28335 whole entry): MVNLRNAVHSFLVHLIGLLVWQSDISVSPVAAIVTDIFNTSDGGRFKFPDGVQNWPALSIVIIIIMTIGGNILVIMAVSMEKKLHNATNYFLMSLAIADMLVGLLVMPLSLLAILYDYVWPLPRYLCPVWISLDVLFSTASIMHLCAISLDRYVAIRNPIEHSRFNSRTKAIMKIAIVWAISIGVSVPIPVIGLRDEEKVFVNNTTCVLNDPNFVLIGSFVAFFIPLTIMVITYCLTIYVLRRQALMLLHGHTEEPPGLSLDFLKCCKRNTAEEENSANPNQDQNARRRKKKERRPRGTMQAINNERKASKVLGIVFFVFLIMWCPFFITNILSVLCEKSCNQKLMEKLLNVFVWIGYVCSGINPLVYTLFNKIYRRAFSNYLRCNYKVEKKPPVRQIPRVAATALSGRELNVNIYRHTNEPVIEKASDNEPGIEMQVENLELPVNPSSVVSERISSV

O=C(NC[C@@H]1[C@H]2CN(C(=O)OCc3cc(C(F)(F)F)cc(C(F)(F)F)c3)C[C@@H]12)c1ccc2[nH]nnc2c1 [BI 2545]
inactive: residual activity [1] 95% | residual activity [2] 100% | residual activity [3] 89% | residual activity [4] 61% | residual activity [5] 89% | residual activity [6] 86% | residual activity [7] 100% | residual activity [8] 80% | residual activity [9] 100% | residual activity [10] 100% | residual activity [11] 100% | residual activity [12] 90% | residual activity [13] 92% | residual activity [14] 100% | residual activity [15] 98% | residual activity [16] 100% | residual activity [17] 86% | residual activity [18] 92% | residual activity [19] 94% | residual activity [20] 93% | residual activity [21] 100% | residual activity [22] 100% | residual activity [23] 97% | residual activity [24] 100% | residual activity [25] 83% | residual activity [26] 100% | residual activity [27] 95% | residual activity [28] 100% | residual activity [29] 78% | residual activity [30] 75% | residual activity [31] 100% | residual activity [32] 90% | residual activity [33] 100% | residual activity [34] 94% | residual activity [35] 80% | residual activity [36] 100% | residual activity [37] 100% | residual activity [38] 97% | residual activity [39] 72% | residual activity [40] 72% | residual activity [41] 95% | inhibition [42] 41.5% | inhibition [43] 8.68% | inhibition [44] 27.8% | inhibition [45] 39.5%

Cc1nccc(COC(=O)N2C[C@@H]3[C@@H](CNC(=O)c4ccc5[nH]nnc5c4)[C@@H]3C2)n1 [BI 3017]
inactive: residual activity [1] 100% | residual activity [2] 100% | residual activity [3] 100% | residual activity [4] 90% | residual activity [5] 97% | residual activity [6] 100% | residual activity [7] 97% | residual activity [8] 100% | residual activity [9] 93% | residual activity [10] 93% | residual activity [11] 95% | residual activity [12] 91% | residual activity [13] 97% | residual activity [14] 100% | residual activity [15] 100% | residual activity [16] 81% | residual activity [17] 97% | residual activity [18] 84% | residual activity [19] 85% | residual activity [20] 84% | residual activity [21] 100% | residual activity [22] 100% | residual activity [23] 90% | residual activity [24] 100% | residual activity [25] 100% | residual activity [26] 100% | residual activity [27] 97% | residual activity [28] 86% | residual activity [29] 85% | residual activity [30] 85% | residual activity [31] 91% | residual activity [32] 86% | residual activity [33] 100% | residual activity [34] 75% | residual activity [35] 94% | residual activity [36] 82% | residual activity [37] 100% | residual activity [38] 77% | residual activity [39] 94% | residual activity [40] 94% | residual activity [41] 100% | inhibition [42] 31.1% | inhibition [43] -9.63% | inhibition [44] 9.47% | inhibition [45] 7.45%
